Measurements as given in PubChem BioAssay (NCI).
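Each compound was tested at five concentrations against cells in 96-well plates for 48 hours. TGI is the concentration that stops growth completely.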

Tests used:
Assay in all cases: DTP human tumour cell line panel, 48 h
NCI/ADR-RES ovarian = tested on: NCI/ADR-RES ovarian
OVCAR-5 ovarian = tested on: OVCAR-5 ovarian
SF-295 CNS = tested on: SF-295 CNS
PC-3 prostate = tested on: PC-3 prostate
BT-549 breast = tested on: BT-549 breast
COLO 205 colon = tested on: COLO 205 colon
MOLT-4 leukemia = tested on: MOLT-4 leukemia
SN12C renal = tested on: SN12C renal
U251 CNS = tested on: U251 CNS
MCF7 breast = tested on: MCF7 breast

Row | Compound | TGI (NCI/ADR-RES ovarian) [µM] | TGI (OVCAR-5 ovarian) [µM] | TGI (SF-295 CNS) [µM] | TGI (PC-3 prostate) [µM] | TGI (BT-549 breast) [µM] | TGI (COLO 205 colon) [µM] | TGI (MOLT-4 leukemia) [µM] | TGI (SN12C renal) [µM] | TGI (U251 CNS) [µM] | TGI (MCF7 breast) [µM]
1 | NC(N)=NS(=O)(=O)c1ccc(NC(=O)c2ccc3nc4ccccc4c(Nc4ccc(S(=O)(=O)N=C(N)N)cc4)c3c2)cc1 | > 100 | > 100 | > 100 | > 100 | > 100 | > 100 | > 100 | > 100 | > 100 | > 100
2 | COc1ccc2cc(NC(=O)N/N=C\c3ccc(Cl)cc3)ccc2c1 | > 100 | > 100 | > 100 | > 100 | > 100 | > 100 | > 100 | > 100 | > 100 | > 100
3 | CCNC(=O)C1CCCN1C(=O)C(CCCN=C(N)N)NC(=O)C(CC(C)C)NC(=O)C(Cc1c[nH]c2ccccc12)NC(=O)C(Cc1ccc(O)cc1)NC(=O)C(CO)NC(=O)C(Cc1c[nH]c2ccccc12)NC(=O)C(Cc1cnc[nH]1)NC(=O)C1CCC(=O)N1 (stereo not given) | > 100 | > 100 | > 100 | > 100 | > 100 | > 100 | > 100 | > 100 | > 100 | > 100
4 | Brc1cc2nn(-c3ccccc3)nc2c2nonc12 | > 100 | > 100 | > 100 | > 100 | > 100 | > 100 | > 100 | > 100 | > 100 | > 100
5 | CCOC(=O)C(NC(=O)CC(C)C)(N1CCN(c2cc3c(cc2F)c(=O)c(C(=O)O)cn3C2CC2)CC1)C(F)(F)F (stereo not given) | 52.2 | 32.8 | 61.5 | 63.7 | 39.1 | 30.3 | 40.2 | > 100 | > 100 | 68.4
6 | O=C1C=CC(=O)c2c(O)c(NCCc3ccc(O)cc3)c(Cl)c(O)c21 | > 10 | > 10 | > 10 | > 10 | > 10 | > 10 | > 10 | > 10 | > 10 | > 10
7 | COc1cc(I)c2c3c1OC1C34CCN(C)C(C2)C4=CC(I)C1(OC)OC (stereo not given) | 68 | 81.6 | > 100 | 82.1 | 48.4 | 45.2 | 42.4 | 31.9 | 33.9 | 64.3
8 | NC(=O)C(=CNC(=S)c1ccncc1)C(N)=O | > 100 | > 100 | > 100 | > 100 | > 100 | > 100 | > 100 | > 100 | > 100 | > 100
9 | COC(=O)C1=Nc2c(C)nn(-c3ccccc3)c2N=C(c2ccc([N+](=O)[O-])cc2)C1 | > 10 | > 10 | > 10 | > 10 | > 10 | > 10 | > 10 | > 10 | > 10 | > 10
10 | COC(=O)c1ccc(C=Nc2ccc(S(N)(=O)=O)cc2)cc1 | > 100 | > 100 | > 100 | > 100 | > 100 | > 100 | > 100 | > 100 | > 100 | > 100
11 | O=c1c(-c2ccc(Cl)cc2)nnc2n(Cc3ccccc3)c3ccccc3n12 | > 100 | > 100 | 49.4 | > 100 | 57.2 | > 100 | > 100 | > 100 | 72.7 | > 100
12 | Nc1c(C(=O)c2ccc(Cl)cc2)[nH]c(NCc2ccccc2)c1C(=S)Nc1ccccc1 | 24.2 | 9.16 | 3.32 | 18.4 | 7.06 | 26.2 | 6.49 | 17 | 3.13 | 3.08
13 | CC(C)(C)c1cc(/C=C(\C#N)C(=O)NCCO)cc(C(C)(C)C)c1O | 75.3 | 62.8 | 40.8 | 46.7 | 71.1 | 37.2 | 59.1 | 51.6 | 39.9 | 93.5
14 | CCC(C)C(=O)OC1CC2(C)C(c3ccoc3)OC(=O)CC23OC2(C)OC34C(OC(=O)C(C)C)C3(O)C(OC(=O)C5(C)OC5C)C5(C)CC3(O)C(C)(C5CC(=O)OC)C14O2 (stereo not given) | > 100 | > 100 | > 100 | > 100 | > 100 | 57.5 | 65.8 | > 100 | > 100 | 66.1
15 | CC(=O)OCC(OC(C)=O)C1C[C@H]2O[C@@H]3[C@H](C[C@H]2O1)O[C@@]1(C[C@@H]3C)C[C@H](C)[C@@H]2O[C@]3(C[C@@H]2O1)C[C@H]1O[C@H]2[C@H](C)[C@H]4OC(=O)CC5CC[C@H]6OC7[C@H]8O[C@]9(CC[C@H]%10CC(O)(CO)[C@H](CC[C@H]%11C[C@@H](C)C(O)(CO)C(C[C@@H]4O[C@H]2C[C@H]1O3)O%11)O%10)CC8O[C@@H]7[C@@H](O9)[C@H]6O5 (stereo not given in full) | > 0.205 | > 1 | > 0.301 | > 1 | 0.00923 | 0.0696 | > 1 | > 1 | > 1 | > 1
16 | c1ccc2c3c(c(N4CCOCC4)nc2c1)CCCC3 | > 100 | 81.2 | > 100 | > 100 | > 100 | 46.5 | > 100 | > 100 | > 100 | > 100
17 | O=C(Nc1ccccc1C(=O)NCCCO)/C(=C/c1ccccc1O)NC(=O)c1ccccc1 | 69.1 | > 100 | > 75.8 | > 100 | 55.7 | > 100 | > 100 | > 100 | > 81.6 | > 100
